Measurements: PMC7311426, “An amphipathic peptide with antibiotic activity against multidrug-resistant Gram-negative bacteria” (Nature Communications, 2020)
Values after ≈ are worked out from the molar mass of the structure shown.

Legend:
K. pneumoniae = assay: microbe, parasite or virus in culture
How it was run: (§1)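 MICs were scored by eye after 18-20 h static incubation at 37 °C, with bacteria at 5 × 10^5 CFU mL^−1 in MHB. Peptides were serially diluted 2-fold over 12 points, top 128 or 64 μg mL^−1. CAMHB (CLSI) and 1% agarose-MHB variants were also run, at least six replicates.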

P. aeruginosa = assay: microbe, parasite or virus in culture
How it was run: as §1

CN(C)c1cc(NC(=O)CNC(C)(C)C)c(O)c2c1C[C@H]1C[C@H]3[C@H](N(C)C)C(O)=C(C(N)=O)C(=O)[C@@]3(O)C(O)=C1C2=O [TIG]
MIC, broth microdilution (K. pneumoniae; K. pneumoniae 3010 parent strain not exposed to drug): 0.5 µg/mL (≈ 0.854 µM) | MIC, broth microdilution (K. pneumoniae; K. pneumoniae 3010 spontaneous mutant, AA139 selection 4X, plate 1, colony 1, drug-free passage 1): 0.5, 0.5 µg/mL | MIC, broth microdilution (K. pneumoniae; K. pneumoniae 3010 spontaneous mutant, AA139 selection 4X, plate 1, colony 1, drug-free passage 5): 0.5, 0.5 µg/mL | MIC, broth microdilution (K. pneumoniae; K. pneumoniae 3010 spontaneous mutant, AA139 selection 8X, plate 1, colony 1, drug-free passage 1): 0.5, 0.5 µg/mL | MIC, broth microdilution (K. pneumoniae; K. pneumoniae 3010 spontaneous mutant, AA139 selection 8X, plate 1, colony 1, drug-free passage 5): 0.5, 0.5 µg/mL | MIC, broth microdilution (K. pneumoniae; K. pneumoniae ST258 parent strain not exposed to drug): 0.5 µg/mL (≈ 0.854 µM) | MIC, broth microdilution (K. pneumoniae; K. pneumoniae ST258 spontaneous mutant, AA139 selection 4X, plate 1, colony 1, drug-free passage 1): 0.5, 0.5 µg/mL | MIC, broth microdilution (K. pneumoniae; K. pneumoniae ST258 spontaneous mutant, AA139 selection 4X, plate 1, colony 1, drug-free passage 5): 0.5, 0.5 µg/mL | MIC, broth microdilution (P. aeruginosa; P. aeruginosa ATCC 27853 parent strain not exposed to drug): 8 µg/mL (≈ 13.7 µM) | MIC, broth microdilution (P. aeruginosa; P. aeruginosa ATCC 27853 spontaneous mutant, AA139 selection 4X, plate 1, colony 1, drug-free passage 1): 8, 8 µg/mL | MIC, broth microdilution (P. aeruginosa; P. aeruginosa ATCC 27853 spontaneous mutant, AA139 selection 4X, plate 1, colony 1, drug-free passage 5): 8, 8 µg/mL | MIC, broth microdilution (P. aeruginosa; P. aeruginosa ATCC 27853 spontaneous mutant, AA139 selection 4X, plate 1, colony 2, drug-free passage 1): 8, 8 µg/mL | MIC, broth microdilution (P. aeruginosa; P. aeruginosa ATCC 27853 spontaneous mutant, AA139 selection 4X, plate 1, colony 2, drug-free passage 5): 8, 8 µg/mL | MIC, broth microdilution (P. aeruginosa; P. aeruginosa ATCC 27853 spontaneous mutant, AA139 selection 4X, plate 1, colony 3, drug-free passage 1): 8, 8 µg/mL | MIC, broth microdilution (P. aeruginosa; P. aeruginosa ATCC 27853 spontaneous mutant, AA139 selection 4X, plate 1, colony 3, drug-free passage 5): 8, 8 µg/mL | MIC, broth microdilution (P. aeruginosa; P. aeruginosa ATCC 27853 spontaneous mutant, AA139 selection 4X, plate 1, colony 4, drug-free passage 1): 8, 8 µg/mL | MIC, broth microdilution (P. aeruginosa; P. aeruginosa ATCC 27853 spontaneous mutant, AA139 selection 4X, plate 1, colony 4, drug-free passage 5): 8, 8 µg/mL | MIC, broth microdilution (P. aeruginosa; P. aeruginosa ATCC 27853 spontaneous mutant, AA139 selection 4X, plate 1, colony 5, drug-free passage 1): 16, 16 µg/mL | MIC, broth microdilution (P. aeruginosa; P. aeruginosa ATCC 27853 spontaneous mutant, AA139 selection 4X, plate 1, colony 5, drug-free passage 5): 16, 16 µg/mL | MIC, broth microdilution (P. aeruginosa; P. aeruginosa ATCC 27853 spontaneous mutant, AA139 selection 4X, plate 1, colony 6, drug-free passage 1): 8, 8 µg/mL | MIC, broth microdilution (P. aeruginosa; P. aeruginosa ATCC 27853 spontaneous mutant, AA139 selection 4X, plate 1, colony 6, drug-free passage 5): 8, 8 µg/mL | MIC, broth microdilution (P. aeruginosa; P. aeruginosa ATCC 27853 spontaneous mutant, AA139 selection 4X, plate 2, colony 1, drug-free passage 1): 8, 8 µg/mL | MIC, broth microdilution (P. aeruginosa; P. aeruginosa ATCC 27853 spontaneous mutant, AA139 selection 4X, plate 2, colony 1, drug-free passage 5): 8, 8 µg/mL | MIC, broth microdilution (P. aeruginosa; P. aeruginosa ATCC 27853 spontaneous mutant, AA139 selection 4X, plate 2, colony 2, drug-free passage 1): 8, 8 µg/mL | MIC, broth microdilution (P. aeruginosa; P. aeruginosa ATCC 27853 spontaneous mutant, AA139 selection 4X, plate 2, colony 2, drug-free passage 5): 8, 8 µg/mL | MIC, broth microdilution (P. aeruginosa; P. aeruginosa ATCC 27853 spontaneous mutant, AA139 selection 4X, plate 2, colony 3, drug-free passage 1): 8, 8 µg/mL | MIC, broth microdilution (P. aeruginosa; P. aeruginosa ATCC 27853 spontaneous mutant, AA139 selection 4X, plate 2, colony 3, drug-free passage 5): 8, 8 µg/mL | MIC, broth microdilution (P. aeruginosa; P. aeruginosa ATCC 27853 spontaneous mutant, AA139 selection 4X, plate 2, colony 4, drug-free passage 1): 8, 8 µg/mL | MIC, broth microdilution (P. aeruginosa; P. aeruginosa ATCC 27853 spontaneous mutant, AA139 selection 4X, plate 2, colony 4, drug-free passage 5): 8, 8 µg/mL | MIC, broth microdilution (P. aeruginosa; P. aeruginosa ATCC 27853 spontaneous mutant, AA139 selection 8X, plate 1, colony 1, drug-free passage 1): 8, 8 µg/mL | MIC, broth microdilution (P. aeruginosa; P. aeruginosa ATCC 27853 spontaneous mutant, AA139 selection 8X, plate 1, colony 1, drug-free passage 5): 8, 8 µg/mL | MIC, broth microdilution (P. aeruginosa; P. aeruginosa ATCC 27853 spontaneous mutant, AA139 selection 8X, plate 1, colony 2, drug-free passage 1): 8, 8 µg/mL | MIC, broth microdilution (P. aeruginosa; P. aeruginosa ATCC 27853 spontaneous mutant, AA139 selection 8X, plate 1, colony 2, drug-free passage 5): 8, 8 µg/mL | MIC, broth microdilution (P. aeruginosa; P. aeruginosa ATCC 27853 spontaneous mutant, AA139 selection 8X, plate 1, colony 3, drug-free passage 1): 8, 8 µg/mL | MIC, broth microdilution (P. aeruginosa; P. aeruginosa ATCC 27853 spontaneous mutant, AA139 selection 8X, plate 1, colony 3, drug-free passage 5): 8, 8 µg/mL | MIC, broth microdilution (P. aeruginosa; P. aeruginosa ATCC 27853 spontaneous mutant, AA139 selection 8X, plate 1, colony 4, drug-free passage 1): 8, 8 µg/mL | MIC, broth microdilution (P. aeruginosa; P. aeruginosa ATCC 27853 spontaneous mutant, AA139 selection 8X, plate 1, colony 4, drug-free passage 5): 8, 8 µg/mL | MIC, broth microdilution (P. aeruginosa; P. aeruginosa ATCC 27853 spontaneous mutant, AA139 selection 8X, plate 1, colony 5, drug-free passage 1): 8, 8 µg/mL | MIC, broth microdilution (P. aeruginosa; P. aeruginosa ATCC 27853 spontaneous mutant, AA139 selection 8X, plate 1, colony 5, drug-free passage 5): 8, 8 µg/mL | MIC, broth microdilution (P. aeruginosa; P. aeruginosa UNT 138-1 parent strain not exposed to drug): 8 µg/mL (≈ 13.7 µM) | MIC, broth microdilution (P. aeruginosa; P. aeruginosa UNT 138-1 spontaneous mutant, AA139 selection 4X, plate 1, colony 1, drug-free passage 1): 16, 16 µg/mL
